From patent US10421782B2, “Cyclic cationic peptides with antimicrobial activity” (I.C.F. S.R.L., priority 2012, dated 2019)
Where two headings read alike, the source gives them in different places.

Columns and labels:
E. coli ML-35pYC = experiment: Membrane permeabilization assay (CENTA / ONPG kinetics); format: cell-based, Escherichia coli; settings: peptide 12.5 μg/ml, logistic 4-parameter fit, read up to 240 min
Description: The strain ML-35pYC of E. coli was used to assay the kinetics of membrane permeabilization performed by the peptides of the invention. This bacterial strain expresses resistance to ampicillin, constitutive expression of cytoplasmic beta-galactosidase, and is engineered with a plasmid for the synthesis of a periplasmic beta-lactamase. Sixty microliters (60 μl) of bacterial suspension of strain ML-35pYC of E. coli were added to 60 μl of a 15 mM solution of ONPG or 1.5 mM of CENTA in phosphate buffer. Subsequently, 120 μl of the test peptides were added to obtain a final concentration of 12.5 μg/ml. The kinetics of the reaction was evaluated by recording the value of absorbance at […] and 405 nm, for ONPG and CENTA respectively, every 10 min up to a maximum of 240 min.
By “fitting” the experimental points with the logistic 4-parameter curve, it was possible to determine the inflexion point, that is the point where the curve changes direction, relative to the 3 test peptides. No inflexion point was observed during the assay with CENTA (inflexion point higher than 500 min).

P. aeruginosa ATCC 27853 = format: cell-based, Pseudomonas aeruginosa; settings: ATCC 27853, 2 h
Description: Several peptides were tested for their ability to inhibit bacterial growth in liquid culture. Fifty microliters of peptide at a concentration between about 0.2 mM and 50 mM were added in 96-well U-bottom plates containing phosphate buffer 10 mM supplemented with 125 or 250 mM NaCl and one of the following bacteria: Escherichia coli ATCC 25922, P. aeruginosa ATCC 27853. After 2 hour incubation at 37° C., bacteria were transferred on a solid medium. As a growth control, the bacterial cultures were cultured in the absence of peptides.
The bacterial suspension was put in contact for two hours with different concentrations of the peptide at the temperature of 37° C. After incubation, 20 μl were drawn from the wells of each dilution and seeded on the solid medium agar McConkey for Gram-negative bacteria and Columbia agar supplemented with 5% bovine red blood cells for Gram-positive bacteria. The inoculum was evenly distributed on the agarized medium by means of a sterile disposable loop. After incubation for 24 h at the temperature of 37° C., counting of the colony forming units (CFU) was performed.
In table 6A, the antimicrobial activity against E. coli ATCC 25922, Pseudomonas aeruginosa ATCC 27853 in the presence of […] NaCl is reported.

For CC[C@H](C)[C@@H]1NC(=O)[C@H](CCCCN)NC(=O)[C@H](C)NC(=O)[C@@H](NC(=O)[C@H](CCCCN)NC(=O)[C@@H](N)Cc2c[nH]cn2)CSSC[C@@H](C(=O)N[C@@H](C)C(=O)O)NC(=O)[C@H](Cc2ccc(O)cc2)NC(=O)[C@H](CCCCN)NC(=O)[C@H](C(C)C)NC(=O)[C@H](Cc2c[nH]cn2)NC(=O)[C@H](C(C)C)NC(=O)CNC(=O)[C@H](CCCNC(=N)N)NC(=O)[C@H](Cc2c[nH]c3ccccc23)NC(=O)[C@H](CCCCN)NC1=O (relative stereo) [Peptide P2041, HIS*LYS*CYS*ALA*LYS*ILE*LYS*TRP*ARG*GLY*VAL*HIS*VAL*LYS*TYR*CYS*ALA], the “Inflexion point CENTA” value (E. coli ML-35pYC; CENTA substrate (periplasmic beta-lactamase)) was >500 min, the “Inflexion point ONPG” value (E. coli ML-35pYC; ONPG substrate (cytoplasmic beta-galactosidase)) was 16.08 min and the “Antimicrobial activity (percentage of CFU growth inhibition) P. aeruginosa” value (P. aeruginosa ATCC 27853; 12.5 μg/ml) was 100%. The “Antimicrobial activity (percentage of CFU growth inhibition) P. aeruginosa” value (P. aeruginosa ATCC 27853; 100 μg/ml) was 100%.
